In US20210267996A1, “Compounds for inhibition of inflammation” (Children`s Medical Center Corporation, priority 2018, published 2021):
Entries after “also recorded” stand apart in the source; their conditions may differ.

Assays:
[1] = test system: caspase-1, GSDMD, and pro-IL-1β; assay: Caspase-1, GSDMD, pro-IL-1β cleavage and IL-1β secretion by immunoblot, THP-1; format: cell-based, human; details: 30 μM; for caspase-1, GSDMD and pro-IL-1β cleavage: 30 min after nigericin
Method: Immunoblot analysis: cell extracts were prepared using RIPA buffer (50 mM Tris-HCl pH 7.4, 150 mM NaCl, 1 mM EDTA, 1% Triton X-100, 0.1% SDS, 0.5% deoxycholate) supplemented with a complete protease inhibitor cocktail (Roche) and a PhosSTOP phosphatase inhibitor cocktail (Roche). Samples were subjected to SDS-PAGE and the resolved proteins were then transferred to a PVDF membrane (Millipore). Immunoblots were probed with indicated antibodies and visualized using a SuperSignal West Pico chemiluminescence ECL kit (Pierce).
To assess which steps in NLRP3-mediated inflammation were inhibited post ASC speck formation, LPS-primed THP-1 cells were treated with vehicle or 30 μM z-VAD-fmk, disulfiram or Bay 11-7082 1 hr before adding nigericin, and cleavage and activation of caspase-1, GSDMD, and pro-IL-1β were analysed by immunoblot of whole cell lysates 30 min later (FIG. 50). Secretion of processed IL-1β was also assessed by immunoblot of culture supernatants. […] Because immunoblots are not quantitative, caspase-1 activity 30 min after adding nigericin was also assessed using a fluorescent substrate in intact cells. […] Next, the effect of z-VAD-fmk, disulfiram and Bay 11-7082 on LPS+nigericin-induced GSDMD pore formation was assessed by immunofluorescence microscopy using a monoclonal antibody that was generated that recognizes both uncleaved GSDMD and its pore form (FIGS. 53, 54, and 64-66). In the absence of any inhibitor, the GSDMD antibody stained both the cytosol and the plasma membrane of LPS plus nigericin treated cells, which formed characteristic pyroptotic bubbles (See Reference 10). […] Thus, disulfiram and Bay 11-7082 inhibit multiple steps leading to canonical inflammasome-induced pyroptosis and inflammatory cytokine release, including priming, inflammasome assembly, inflammatory caspase activation, pro-inflammatory cytokine processing and GSDMD pore formation.
(§1) Cell death was determined by CytoTox96 assay. […] Cell death was determined by CytoTox96 assay. […] Shown are immunoblots of whole cell lysates harvested 0.5 hr later. […] Representative images of ASC specks (arrowheads) and mean±s.d. percent of cells with ASC specks analyzed 20 min later (FIG. 47). Whole cell lysates (WCL) and culture supernatants (Sup) were harvested 30 min after adding nigericin and immunoblotted with the indicated antibodies (FIG. 50). Caspase-1 activity was assayed 30 min after adding nigericin using a cell-permeable fluorescence dye FAM-YVAD-FMK (FIG. 52). […] Representative images of ASC specks (arrowheads) and mean±s.d. percent of cells with ASC specks analyzed 20 min later (FIGS. 48 and 49). Whole cell lysates (WCL) and culture supernatants (Sup), harvested 30 min after adding nigericin, were analyzed by immunoblot (FIG. 51). […] The Figures show representative confocal microscopy images and quantification of proportion of cells with GSDMD membrane staining and pyroptotic bubbles. Arrows indicate GSDMD staining of pyroptotic bubbles. […] FIGS. 57 and 58, dose response curve of the effect of Bay 11-7082 on caspase-1 (FIG. 57) and caspase-11 (FIG. 58) activity against a fluorescent peptide substrate. […] (FIG. 60). FIGS. 61 and 62 show dose response curve of the effect of Bay 11-7082 on liposome leakage induced by 0.3 μM human GSDMD-3C (FIG. 61) or mouse GSDMA3-3C (FIG. 62) plus 0.15 μM 3C protease. […] 2-fold dilutions of Bay 11-7082 from 5-40 μM were used. Graphs show the mean±s.d; data are representative of three independent experiments. *P<0.05, **P<0.01.
Canonical inflammasome assembly activates caspase-1, which cleaves pro-IL-1β and GSDMD, and the latter is needed to release processed IL-1β and to induce pyroptosis. […]

caspase-1 [2] = assay: Caspase-1 activity assay in cells (FAM-YVAD-FMK); format: cell-based, human; details: 30 μM, 30 min after nigericin
Method: Caspase-1 activity assay in cells: to measure caspase-1 activation, THP-1 cells were seeded into 96-well plates and differentiated with PMA. After the indicated treatments, cells were incubated with a fluorescent active caspase-1 substrate FAM-YVAD-FMK (Immunochemistry Technologies). Samples were read on a BioTek Synergy 2 plate reader.
as §1

GSDMD pore formation = assay: GSDMD membrane staining and pyroptotic bubbles, immunofluorescence; format: cell-based, human; details: 30 μM, 30 min after nigericin
Method: Immunostaining and confocal microscopy: cells grown on coverslips were fixed for 15 min with 4% paraformaldehyde in PBS, permeabilized for 5 min in 0.1% Triton X-100 in PBS and blocked using 5% BSA for 1 hr. Then, cells were stained with the indicated primary antibodies followed by incubation with fluorescent-conjugated secondary antibodies (Jackson ImmunoResearch). Nuclei were counterstained with DAPI (4,6-diamidino-2-phenylindole) (Sigma-Aldrich). Slides were mounted using Aqua-Poly/Mount (Dako). Images were captured using a laser scanning confocal microscope (Olympus Fluoview FV1000 Confocal System) with a 63× water immersion objective and Olympus Fluoview software (Olympus). All confocal images are representative of three independent experiments.
To assess which steps in NLRP3-mediated inflammation were inhibited post ASC speck formation, LPS-primed THP-1 cells were treated with vehicle or 30 μM z-VAD-fmk, disulfiram or Bay 11-7082 1 hr before adding nigericin, and cleavage and activation of caspase-1, GSDMD, and pro-IL-1β were analysed by immunoblot of whole cell lysates 30 min later (FIG. 50). Secretion of processed IL-1β was also assessed by immunoblot of culture supernatants. […] Because immunoblots are not quantitative, caspase-1 activity 30 min after adding nigericin was also assessed using a fluorescent substrate in intact cells. […] Next, the effect of z-VAD-fmk, disulfiram and Bay 11-7082 on LPS+nigericin-induced GSDMD pore formation was assessed by immunofluorescence microscopy using a monoclonal antibody that was generated that recognizes both uncleaved GSDMD and its pore form (FIGS. 53, 54, and 64-66). […]
Cell death was determined by CytoTox96 assay. […] Cell death was determined by CytoTox96 assay. […] Representative images of ASC specks (arrowheads) and mean±s.d. percent of cells with ASC specks analyzed 20 min later (FIG. 47). […] Caspase-1 activity was assayed 30 min after adding nigericin using a cell-permeable fluorescence dye FAM-YVAD-FMK (FIG. 52). […]

caspase-1 [3] = target: T1, caspase-1 (Homo sapiens, UniProt P29466); assay: Caspase-1 inhibition assay (Ac-YVAD-AMC); format: biochemical
T1 sequence (P29466 120-404): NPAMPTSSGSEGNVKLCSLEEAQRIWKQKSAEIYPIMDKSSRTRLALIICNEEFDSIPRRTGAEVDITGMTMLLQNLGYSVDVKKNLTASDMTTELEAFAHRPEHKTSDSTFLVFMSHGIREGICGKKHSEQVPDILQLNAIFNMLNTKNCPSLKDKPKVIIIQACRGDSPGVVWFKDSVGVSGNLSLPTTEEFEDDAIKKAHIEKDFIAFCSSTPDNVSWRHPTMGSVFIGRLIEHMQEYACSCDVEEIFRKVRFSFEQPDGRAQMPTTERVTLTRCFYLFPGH
Method: Caspase-1 and caspase-11 inhibition assays: the fluorogenic assay for caspase-1 and caspase-11 activity is based on release of 7-amino-4-methylcoumarin (AMC) from the caspase substrate Ac-YVAD-AMC. Compounds (8 nM-50 μM) were incubated with 0.5 U of caspase-1 or caspase-11 for 30 min in assay buffer (20 mM HEPES, 150 mM NaCl) in 384-well plates (Corning 3820) before addition of Ac-YVAD-AMC (40 μM) to initiate the reactions. Reactions were monitored in a SpectraMax M5 plate reader (Molecular Devices, Sunnyvale, Calif. USA) with excitation/emission wavelengths at 350/460 nm. The fluorescence intensity of each reaction was recorded every 2 min for 2 hrs.
Fluorescence intensity at 460 nm was measured after excitation at 350 nm.

Structure (SMILES)	caspase-1, GSDMD and pro-IL-1β cleavage ([1]; listed as disulfiram)	processing of caspase-1, GSDMD and pro-IL-1β ([1]; 60 min after nigericin)	processed IL-1β in culture supernatants ([1]; listed as disulfiram)	caspase-1 activity in intact cells (caspase-1 [2])	GSDMD membrane staining and pyroptotic bubbles (GSDMD pore formation)	IC50 (caspase-1 [3]) [nM]	effect of Cu(II) on caspase-1 inhibition (caspase-1 [3]; with Cu(II))	processed IL-1β in culture supernatants [1]	caspase-1, GSDMD and pro-IL-1β cleavage [1]	caspase-1 inhibition (caspase-1 [3])
CCN(CC)C(=S)SSC(=S)N(CC)CC [C-23, Tetraethylthiuram disulfide]	dramatically reduced; also recorded: processing was reduced	caught up with what was detected in the absence of inhibitors	only detected in the culture supernatants in the absence of any inhibitor; also recorded: completely inhibited cytokine release	only partially reduced	completely blocked	150 ± 40	did not strongly change	–	–	–
Cc1ccc(S(=O)(=O)/C=C/C#N)cc1 [Bay 11-7082]	–	–	–	only partially reduced	completely blocked	–	–	only detected in the culture supernatants in the absence of any inhibitor	dramatically reduced	inhibited
